Earlier results, collected in patent US11141417B2 (priority 2013, dated 2021).
“Also recorded” adds a separate entry of the source.

Conditions: classification in words

## C[C@@H](c1ncncc1F)[C@](O)(Cn1cncn1)c1ccc(F)cc1F [Voriconazole, (2R,3S)-2-(2,4-difluorophenyl)-3-(5-fluoro-4-pyrimidinyl)-1-(1H-1,2,4triazol-1-yl)-2-butanol]
  solubility in water: only sparingly soluble in water; also recorded: very slightly soluble in water
